According to patent publication US20120270844A1, “METHODS FOR TREATING ALZHEIMER'S DISEASE” (aFRAXis, Inc., priority 2009, published 2012):
pIC50: −log10 of the molar value.

target: PAK1 (Homo sapiens, UniProt Q13153); test: Z'Lyte fluorescence-based (FRET) PAK kinase assay, PAK1; assay type: biochemical; settings: Table 1 of Example 29 (own compound numbering); 50 μM ATP
Procedure: (§1) A fluorescence-based assay format is used to determine IC50 values of test compounds in vitro. Purified PAK kinase is incubated with ATP, and a test compound at various concentrations and a substrate peptide containing two fluorophores. In a second step, the reaction mix is incubated with a site-specific protease that cleaves non-phosphorylated bat not phosphorylated substrate peptide, disrupting the FRET signal generated by the two fluorophores in the cleaved peptide (Z′Lyte™ Kinase assay platform; Life Technologies).
(§2) Reagents: 50 mM HEPES, pH 7.5; 0.01% BRIJ-35; 10 nM MgCl1; 1 mM EGTA, 2 uM substrate peptide Ser/Thr20 (proprietary Life Technologies Sequence), PAK enzyme [2.42-30.8 ng for PAK1, 0.29-6 ng for PAK2, 1.5-20 ng for PAK3 and 0.1-0.86 ng for PAK4; actual enzyme amounts depend on lot activity of the enzyme preparation]
(§3) Test compounds are dissolved in DMSO at various concentrations; the final DMSO concentration in the assay reaction is 1%.
(§4) ATP concentration at Kin apparent is used in the assay [50 ┌M ATP for PAK1 assay, 75 ┌M ATP for PAK2 assay, 100 μM ATP for PAK3 assay, 5 μM ATP for PAK4 assay] in a total assay volume of 10 μl. Assay reactions are incubated at room temperature for 1 hr. Following the kinase reaction, 5 μl of 1:256 dilution of development solution A (Life Technologies) is added and the reaction mix is incubated for an additional 1 hr at room temperature.
(§5) Plates are analyzed in a standard fluorescence plate reader (Tecan or equivalent) using an excitation wavelength of 400 nn and emission wavelengths of 445 nm and 520 nm.
(§6) Inhibition of kinase reaction is determined by emission ratio=emission@445 nm/emission@520 nm
as §1, with “non-phosphorylated but” for “non-phosphorylated bat”, “peptide (Z'Lyte™” for “peptide (Z′Lyte™”, “assay platform” for “assay platform;”
as §2, with “mM MgCl2;” for “nM MgCl1;”
as §4, with “at Km” for “at Kin”, “[50 μMATP” for “[50 ┌M ATP”, “75 µM” for “75 ┌M”, “[…]” for “10 μl.”, “kinase reaction.” for “kinase reaction,”, “[…]” for “5 μl”
(§7) Plates are analyzed in a standard fluorescence plate reader (Teem or equivalent) using an excitation wavelength of 400 nm and emission wavelengths of 445 nm and 520 nm.

Chain of PAK1 (Q13153 whole entry): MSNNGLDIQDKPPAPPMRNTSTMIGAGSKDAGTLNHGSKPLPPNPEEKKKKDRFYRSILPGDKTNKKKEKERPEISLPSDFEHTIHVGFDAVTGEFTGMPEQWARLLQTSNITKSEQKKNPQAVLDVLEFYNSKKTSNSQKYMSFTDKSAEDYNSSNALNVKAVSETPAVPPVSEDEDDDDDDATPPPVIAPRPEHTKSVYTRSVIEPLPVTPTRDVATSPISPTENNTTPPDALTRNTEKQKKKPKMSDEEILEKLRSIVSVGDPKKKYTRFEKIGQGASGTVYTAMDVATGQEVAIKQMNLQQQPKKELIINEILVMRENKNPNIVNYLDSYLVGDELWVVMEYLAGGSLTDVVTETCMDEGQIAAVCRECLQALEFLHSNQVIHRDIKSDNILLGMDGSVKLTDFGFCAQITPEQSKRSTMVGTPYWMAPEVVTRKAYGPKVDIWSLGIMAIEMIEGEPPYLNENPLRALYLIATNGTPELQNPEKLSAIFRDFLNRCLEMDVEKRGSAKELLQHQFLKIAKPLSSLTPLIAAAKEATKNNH

pIC50 | Structure (SMILES)
> 6.00 | Cc1cccc(O)c1Cn1c(=O)ccc2cnc(Nc3ccc(N4CCN(C)CC4)cc3)nc21 [Compound 119]
> 6.00 | CN1CCN(c2ccc(Nc3ncc4ccc(=O)n(Cc5ccccc5-c5ncno5)c4n3)cc2)CC1 [Compound 127]
> 6.00 | O=c1ccc2cnc(Nc3ccc(N4CCNCC4)c(F)c3)nc2n1Cc1ccccc1-c1ncno1 [Compound 132]
> 6.00 | CN1CCN(c2ccc(Nc3ncc4ccc(=O)n(Cc5c(F)cccc5[S+](C)[O-])c4n3)cc2)CC1 (stereo not drawn) [Compound 139]

same assay, conditions: Table 1 of Example 100; 50 μM ATP

pIC50 | Structure (SMILES)
5.00 to 6.00 | CN1CCN(c2ccc(Nc3ncc4ccc(=O)n([C@@H]5CCCc6ccccc65)c4n3)cc2)CC1 [Compound 10]
> 6.00 | O=c1ccc2cnc(Nc3ccc(OC4CCNCC4)cc3)nc2n1Cc1ccccc1C(F)(F)F [Compound 12]
> 6.00 | CN(c1ccc(Nc2ncc3ccc(=O)n(Cc4ccccc4C(F)(F)F)c3n2)cc1)C1CCCNC1 (stereo not drawn) [Compound 13]
> 6.00 | O=c1ccc2cnc(Nc3ccc(OC4CCCNC4)cc3)nc2n1Cc1ccccc1C(F)(F)F (stereo not drawn) [Compound 14]
5.00 to 6.00 | CN1CCN(c2ccc(Nc3ncc4ccc(=O)n(C5CCOc6ccccc65)c4n3)cc2)CC1 (stereo not drawn) [Compound 15]

target: PAK2 (Homo sapiens, UniProt Q13177); test: Z'Lyte fluorescence-based (FRET) PAK kinase assay, PAK2; assay type: biochemical; settings: Table 1 of Example 29 (own compound numbering); 75 µM ATP
Sequence (Q13177 whole entry): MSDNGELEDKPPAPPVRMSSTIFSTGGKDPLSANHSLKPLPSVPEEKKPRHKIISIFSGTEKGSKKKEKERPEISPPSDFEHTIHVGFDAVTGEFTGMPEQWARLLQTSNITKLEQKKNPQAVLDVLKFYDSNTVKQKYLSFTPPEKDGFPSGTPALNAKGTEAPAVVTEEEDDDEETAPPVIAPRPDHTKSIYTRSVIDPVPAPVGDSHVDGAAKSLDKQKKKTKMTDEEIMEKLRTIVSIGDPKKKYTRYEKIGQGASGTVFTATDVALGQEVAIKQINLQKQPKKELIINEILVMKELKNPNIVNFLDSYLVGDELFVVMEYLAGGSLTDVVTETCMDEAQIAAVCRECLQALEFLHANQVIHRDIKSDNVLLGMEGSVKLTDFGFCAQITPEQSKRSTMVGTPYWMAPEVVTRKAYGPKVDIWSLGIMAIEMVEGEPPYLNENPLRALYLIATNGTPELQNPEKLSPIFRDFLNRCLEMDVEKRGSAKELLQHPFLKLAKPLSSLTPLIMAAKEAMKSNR
Procedure: as §1, §2, §3, §4, §5, §6
as §1, with “non-phosphorylated but” for “non-phosphorylated bat”, “peptide (Z'Lyte™” for “peptide (Z′Lyte™”, “assay platform” for “assay platform;”
as §2, with “mM MgCl2;” for “nM MgCl1;”
as §4, with “at Km” for “at Kin”, “[50 μMATP” for “[50 ┌M ATP”, “75 µM” for “75 ┌M”, “[…]” for “10 μl.”, “kinase reaction.” for “kinase reaction,”, “[…]” for “5 μl”
as §7

pIC50 | Structure (SMILES)
5.00 to 6.00 | Cc1cccc(O)c1Cn1c(=O)ccc2cnc(Nc3ccc(N4CCN(C)CC4)cc3)nc21 [Compound 119]
5.00 to 6.00 | CN1CCN(c2ccc(Nc3ncc4ccc(=O)n(Cc5ccccc5-c5ncno5)c4n3)cc2)CC1 [Compound 127]
5.00 to 6.00 | O=c1ccc2cnc(Nc3ccc(N4CCNCC4)c(F)c3)nc2n1Cc1ccccc1-c1ncno1 [Compound 132]
5.00 to 6.00 | CN1CCN(c2ccc(Nc3ncc4ccc(=O)n(Cc5c(F)cccc5[S+](C)[O-])c4n3)cc2)CC1 (stereo not drawn) [Compound 139]

same assay, conditions: Table 1 of Example 100; 75 μM ATP

pIC50 | Structure (SMILES)
5.00 to 6.00 | CN1CCN(c2ccc(Nc3ncc4ccc(=O)n([C@@H]5CCCc6ccccc65)c4n3)cc2)CC1 [Compound 10]
> 6.00 | O=c1ccc2cnc(Nc3ccc(OC4CCNCC4)cc3)nc2n1Cc1ccccc1C(F)(F)F [Compound 12]
> 6.00 | CN(c1ccc(Nc2ncc3ccc(=O)n(Cc4ccccc4C(F)(F)F)c3n2)cc1)C1CCCNC1 (stereo not drawn) [Compound 13]
> 6.00 | O=c1ccc2cnc(Nc3ccc(OC4CCCNC4)cc3)nc2n1Cc1ccccc1C(F)(F)F (stereo not drawn) [Compound 14]
5.00 to 6.00 | CN1CCN(c2ccc(Nc3ncc4ccc(=O)n(C5CCOc6ccccc65)c4n3)cc2)CC1 (stereo not drawn) [Compound 15]

target: PAK3 (Homo sapiens, UniProt O75914); test: Z'Lyte fluorescence-based (FRET) PAK kinase assay, PAK3; assay type: biochemical; settings: Table 1 of Example 29 (own compound numbering); 100 μM ATP
Sequence (O75914 whole entry): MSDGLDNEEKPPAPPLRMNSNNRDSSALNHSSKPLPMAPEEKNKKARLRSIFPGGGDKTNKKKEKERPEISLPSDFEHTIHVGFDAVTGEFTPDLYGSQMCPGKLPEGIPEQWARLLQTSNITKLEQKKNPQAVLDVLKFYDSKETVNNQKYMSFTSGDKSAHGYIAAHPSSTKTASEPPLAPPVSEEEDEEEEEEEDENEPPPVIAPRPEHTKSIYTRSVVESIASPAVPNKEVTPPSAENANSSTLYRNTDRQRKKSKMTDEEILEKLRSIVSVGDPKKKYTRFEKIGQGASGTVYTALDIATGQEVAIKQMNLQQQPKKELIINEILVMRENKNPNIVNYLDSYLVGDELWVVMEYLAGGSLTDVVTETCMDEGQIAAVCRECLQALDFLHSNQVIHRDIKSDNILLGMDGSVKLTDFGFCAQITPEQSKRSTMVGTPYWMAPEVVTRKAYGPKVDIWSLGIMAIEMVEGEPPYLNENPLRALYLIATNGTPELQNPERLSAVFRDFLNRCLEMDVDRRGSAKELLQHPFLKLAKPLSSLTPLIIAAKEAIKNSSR
Procedure: as §1, §2, §3, §4, §5, §6
as §1, with “non-phosphorylated but” for “non-phosphorylated bat”, “peptide (Z'Lyte™” for “peptide (Z′Lyte™”, “assay platform” for “assay platform;”
as §2, with “mM MgCl2;” for “nM MgCl1;”
as §4, with “at Km” for “at Kin”, “[50 μMATP” for “[50 ┌M ATP”, “75 µM” for “75 ┌M”, “[…]” for “10 μl.”, “kinase reaction.” for “kinase reaction,”, “[…]” for “5 μl”
as §7

pIC50 | Structure (SMILES)
5.00 to 6.00 | Cc1cccc(O)c1Cn1c(=O)ccc2cnc(Nc3ccc(N4CCN(C)CC4)cc3)nc21 [Compound 119]
5.00 to 6.00 | CN1CCN(c2ccc(Nc3ncc4ccc(=O)n(Cc5ccccc5-c5ncno5)c4n3)cc2)CC1 [Compound 127]
5.00 to 6.00 | O=c1ccc2cnc(Nc3ccc(N4CCNCC4)c(F)c3)nc2n1Cc1ccccc1-c1ncno1 [Compound 132]
> 6.00 | CN1CCN(c2ccc(Nc3ncc4ccc(=O)n(Cc5c(F)cccc5[S+](C)[O-])c4n3)cc2)CC1 (stereo not drawn) [Compound 139]

same assay, conditions: Table 1 of Example 100; 100 μM ATP

pIC50 | Structure (SMILES)
5.00 to 6.00 | CN1CCN(c2ccc(Nc3ncc4ccc(=O)n([C@@H]5CCCc6ccccc65)c4n3)cc2)CC1 [Compound 10]
> 6.00 | O=c1ccc2cnc(Nc3ccc(OC4CCNCC4)cc3)nc2n1Cc1ccccc1C(F)(F)F [Compound 12]
> 6.00 | CN(c1ccc(Nc2ncc3ccc(=O)n(Cc4ccccc4C(F)(F)F)c3n2)cc1)C1CCCNC1 (stereo not drawn) [Compound 13]
> 6.00 | O=c1ccc2cnc(Nc3ccc(OC4CCCNC4)cc3)nc2n1Cc1ccccc1C(F)(F)F (stereo not drawn) [Compound 14]
5.00 to 6.00 | CN1CCN(c2ccc(Nc3ncc4ccc(=O)n(C5CCOc6ccccc65)c4n3)cc2)CC1 (stereo not drawn) [Compound 15]

target: PAK4 (Homo sapiens, UniProt O96013); test: Z'Lyte fluorescence-based (FRET) PAK kinase assay, PAK4; assay type: biochemical; settings: Table 1 of Example 29 (own compound numbering); 5 μM ATP
Sequence (O96013 whole entry): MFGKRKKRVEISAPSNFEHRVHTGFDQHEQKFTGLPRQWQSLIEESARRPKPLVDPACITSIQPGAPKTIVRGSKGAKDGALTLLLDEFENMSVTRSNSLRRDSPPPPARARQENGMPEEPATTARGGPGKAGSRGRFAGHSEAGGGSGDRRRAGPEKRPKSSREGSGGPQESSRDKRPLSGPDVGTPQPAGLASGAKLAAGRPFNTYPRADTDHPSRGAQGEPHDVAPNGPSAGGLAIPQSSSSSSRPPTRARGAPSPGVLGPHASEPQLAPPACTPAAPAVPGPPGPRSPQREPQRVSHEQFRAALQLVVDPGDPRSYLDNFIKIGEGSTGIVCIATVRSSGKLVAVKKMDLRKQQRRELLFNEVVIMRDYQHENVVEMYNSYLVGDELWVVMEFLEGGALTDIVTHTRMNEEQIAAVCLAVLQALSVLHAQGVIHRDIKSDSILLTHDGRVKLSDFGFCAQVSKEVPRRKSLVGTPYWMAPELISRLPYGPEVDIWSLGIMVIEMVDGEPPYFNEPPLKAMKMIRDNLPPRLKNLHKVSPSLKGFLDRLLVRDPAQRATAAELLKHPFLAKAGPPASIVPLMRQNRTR
Procedure: as §1, §2, §3, §4, §5, §6
as §1, with “non-phosphorylated but” for “non-phosphorylated bat”, “peptide (Z'Lyte™” for “peptide (Z′Lyte™”, “assay platform” for “assay platform;”
as §2, with “mM MgCl2;” for “nM MgCl1;”
as §4, with “at Km” for “at Kin”, “[50 μMATP” for “[50 ┌M ATP”, “75 µM” for “75 ┌M”, “[…]” for “10 μl.”, “kinase reaction.” for “kinase reaction,”, “[…]” for “5 μl”
as §7

pIC50 | Structure (SMILES)
> 6.00 | Cc1cccc(O)c1Cn1c(=O)ccc2cnc(Nc3ccc(N4CCN(C)CC4)cc3)nc21 [Compound 119]
5.00 to 6.00 | CN1CCN(c2ccc(Nc3ncc4ccc(=O)n(Cc5ccccc5-c5ncno5)c4n3)cc2)CC1 [Compound 127]
5.00 to 6.00 | O=c1ccc2cnc(Nc3ccc(N4CCNCC4)c(F)c3)nc2n1Cc1ccccc1-c1ncno1 [Compound 132]
5.00 to 6.00 | CN1CCN(c2ccc(Nc3ncc4ccc(=O)n(Cc5c(F)cccc5[S+](C)[O-])c4n3)cc2)CC1 (stereo not drawn) [Compound 139]

same assay, conditions: Table 1 of Example 100; 5 μM ATP

pIC50 | Structure (SMILES)
5.00 to 6.00 | CN1CCN(c2ccc(Nc3ncc4ccc(=O)n([C@@H]5CCCc6ccccc65)c4n3)cc2)CC1 [Compound 10]
> 6.00 | O=c1ccc2cnc(Nc3ccc(OC4CCNCC4)cc3)nc2n1Cc1ccccc1C(F)(F)F [Compound 12]
> 6.00 | CN(c1ccc(Nc2ncc3ccc(=O)n(Cc4ccccc4C(F)(F)F)c3n2)cc1)C1CCCNC1 (stereo not drawn) [Compound 13]
> 6.00 | O=c1ccc2cnc(Nc3ccc(OC4CCCNC4)cc3)nc2n1Cc1ccccc1C(F)(F)F (stereo not drawn) [Compound 14]
5.00 to 6.00 | CN1CCN(c2ccc(Nc3ncc4ccc(=O)n(C5CCOc6ccccc65)c4n3)cc2)CC1 (stereo not drawn) [Compound 15]
